In patent US9597307B2 (priority 2012, dated 2017):
Like-named read-outs stand apart in the source and are kept apart here.

Columns and labels:
Wistar rats = conditions: high fructose diet, two weeks of daily injections 10 mg/kg, vs vehicle-treated control
Description: For intraperitoneal pyruvate tolerance tests, a high fructose diet was used to induce insulin resistance on a group of Wistar rats. […] Intraperitoneal pyruvate tolerance tests are a procedure where pyruvate is converted to glucose in gluconeo-genesis. The test specifically reflects the insulin sensitivity of the liver.

H-4-II-E cells = conditions: without or with 10 or 100 nM insulin, FIG. 3
Description: H-4-II-E cells were seeded 110,000/well in 24-well plates in their usual medium (EMEM from ATCC, no 30-2003 with addition of 10% FBS and penicillin/streptomycin) at day 0 and incubated with 0.25 mM palmitate-BSA (ratio 10:3) for 16 h ON day 2-3. […] The cells were washed 3 times with glucose output medium (GOM) without glucogenic substrates (118 mM NaCl, 4.7 mM KCl, 1.2 mM MgSO4, 1.2 mM KH2P04, 1.2 mM CaC12, 20 mM NaHCO3, 25 mM HEPES pH 7.4 and 0.025% BSA). Then 500 ul of GOM (118 mM NaCl, 4.7 mM KCl, 1.2 mM MgSO4, 1.2 mM KH2PO4, 1.2 mM CaCl2, 20 mM NaCO3, 25 mM HEPES pH 7.4, 0.025% BSA, 20 mM lactate, 2 mM pyruvate and 10 mM glutamine) and GOM with the addition of 10 or 100 nM insulin was added, and the cells were allowed to incubate for 5 h. After that, most of the incubation medium (375 ul) was removed and used for glucose measurements. The cells were washed once with cold PBS and lyzed with 200 ul RIPA buffer for determination of protein concentration. […] Glucose concentration in the buffer samples was determined using the AmplexRed Glucose/Glucose Oxidase Assay Kit (LifeTechnologies no. A22189) following the manufacturer's instructions. Protein concentration in the cell lysates was measured using Pierce BCA Protein Assay Kit (ThermoScientific no. 23225).

T2D signature = conditions: Wistar rats, high fructose diet, two weeks of daily injections 10 mg/kg; p<0.0001 using Fisher's exact test
Description: In a first attempt to use gene network analyses for drug repositioning, a panel of 50 genes that are perturbed in the liver in T2D (‘T2D signature’) were identified. The genes were selected using differential expression analysis, causality tests, and a Bayesian network algorithm to identify genes that regulate the expression of several other disease genes (‘key regulators’).
A high fructose diet was used to induce insulin resistance on a group of Wistar rats.

[1] = cited from earlier work; for toxicity in studies / clinical testing: other indications (cancer and immune diseases), high doses

## C[S+]([O-])CCCCN=C=S (stereo not drawn) [sulforaphane]
Wistar rats; FIG. 2
  intraperitoneal pyruvate tolerance (insulin sensitivity of the liver): significant positive effect
Wistar rats; FIG. 2, listed as Sulforaphane
  intraperitoneal pyruvate tolerance (insulin sensitivity of the liver): showed significant differences from a vehicle-treated control group
H-4-II-E cells; 10 uM sulforaphane for 28 h
  hepatic glucose output, insulin-sensitive liver cells: decreases hepatic glucose output
H-4-II-E cells; 0.25 mM palmitate-BSA 16 h, then 10 uM sulforaphane for 28 h
  hepatic glucose output, insulin-resistant (induced by palmitate) liver cells: decreases hepatic glucose output
Animals on high-fat diet
  result of the experiments repeated in animals on high-fat diet: positive results
T2D signature
  reversal of genes in the T2D signature in liver: a major fraction of the genes in the T2D signature was reversed
[1]; ongoing studies for other indications
  serious adverse events in ongoing studies: no serious adverse events have been reported
[1]
  toxicity in studies / clinical testing: low toxicity even at high doses
[1]; listed as Sulforaphane
  toxicity in studies / clinical testing: very low toxicity even at high doses
